Measurements as given in PubChem BioAssay (NCI).
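Results reflect a 48-hour exposure of cells in 96-well plates to compound at five concentrations. TGI denotes the concentration required for complete inhibition of growth.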

Assays:
Experiment in all cases: growth of human tumour cells (NCI), 48 h
NCI-H460 lung = system: NCI-H460 lung
COLO 205 colon = system: COLO 205 colon
SK-OV-3 ovarian = system: SK-OV-3 ovarian
SNB-75 CNS = system: SNB-75 CNS
SNB-19 CNS = system: SNB-19 CNS
NCI/ADR-RES ovarian = system: NCI/ADR-RES ovarian
TK-10 renal = system: TK-10 renal
OVCAR-4 ovarian = system: OVCAR-4 ovarian
SR leukemia = system: SR leukemia
A498 renal = system: A498 renal
OVCAR-8 ovarian = system: OVCAR-8 ovarian
LOX IMVI melanoma = system: LOX IMVI melanoma
MDA-N = system: MDA-N
SF-539 CNS = system: SF-539 CNS
IGROV1 ovarian = system: IGROV1 ovarian
ACHN renal = system: ACHN renal
MOLT-4 leukemia = system: MOLT-4 leukemia
RXF 393 renal = system: RXF 393 renal
HOP-92 NSCLC = system: HOP-92 NSCLC
PC-3 prostate = system: PC-3 prostate
MDA-MB-231 breast = system: MDA-MB-231 breast
MCF7 breast = system: MCF7 breast
CAKI-1 renal = system: CAKI-1 renal
M14 melanoma = system: M14 melanoma
OVCAR-3 ovarian = system: OVCAR-3 ovarian
NCI-H23 lung = system: NCI-H23 lung
RPMI-8226 leukemia = system: RPMI-8226 leukemia
HL-60(TB) leukemia = system: HL-60(TB) leukemia
HT29 colon = system: HT29 colon
NCI-H226 lung = system: NCI-H226 lung
HS 578T breast = system: HS 578T breast
KM12 colon = system: KM12 colon
786-0 renal = system: 786-0 renal
UACC-257 melanoma = system: UACC-257 melanoma
SN12C renal = system: SN12C renal
CCRF-CEM leukemia = system: CCRF-CEM leukemia
SK-MEL-2 melanoma = system: SK-MEL-2 melanoma
SK-MEL-5 melanoma = system: SK-MEL-5 melanoma
U251 CNS = system: U251 CNS
EKVX NSCLC = system: EKVX NSCLC
A549 NSCLC = system: A549 NSCLC
HCT-116 colon = system: HCT-116 colon
T-47D breast = system: T-47D breast
SF-268 CNS = system: SF-268 CNS
MDA-MB-435 = system: MDA-MB-435
SW-620 colon = system: SW-620 colon
OVCAR-5 ovarian = system: OVCAR-5 ovarian
DU-145 prostate = system: DU-145 prostate
UACC-62 melanoma = system: UACC-62 melanoma
HCT-15 colon = system: HCT-15 colon
NCI-H522 lung = system: NCI-H522 lung
BT-549 breast = system: BT-549 breast
SF-295 CNS = system: SF-295 CNS
UO-31 renal = system: UO-31 renal
SK-MEL-28 melanoma = system: SK-MEL-28 melanoma
HOP-62 NSCLC = system: HOP-62 NSCLC
MALME-3M melanoma = system: MALME-3M melanoma
K-562 leukemia = system: K-562 leukemia

Q: For `COc1cc2c3c(c1O)-c1c(ccc(OC)c1OC)CC3N(C)CC2` (stereo unspecified), which TGI (NCI-H460 lung) is on record?
A: Its TGI is over 100 µM.

Q: What about the TGI (COLO 205 colon) of the same molecule?
A: Its TGI is over 100 µM.

Q: What about the TGI (SK-OV-3 ovarian) of the same molecule?
A: The TGI was over 100 µM.

Q: What about the TGI (SNB-75 CNS) of the same molecule?
A: Its TGI is over 100 µM.

Q: And the TGI (SNB-19 CNS)?
A: Its TGI is over 100 µM.

Q: What about the TGI (NCI/ADR-RES ovarian) of the same molecule?
A: The TGI was over 100 µM.

Q: And the TGI (TK-10 renal)?
A: The TGI was over 100 µM.

Q: What about the TGI (OVCAR-4 ovarian) of the same molecule?
A: The TGI was over 100 µM.

Q: What about the TGI (SR leukemia) of the same molecule?
A: The TGI was over 100 µM.

Q: And the TGI (A498 renal)?
A: The TGI was over 100 µM.

Q: And the TGI (OVCAR-8 ovarian)?
A: The TGI was over 100 µM.

Q: And the TGI (LOX IMVI melanoma)?
A: Its TGI is over 100 µM.

Q: And the TGI (MDA-N)?
A: Its TGI is over 100 µM.

Q: And the TGI (SF-539 CNS)?
A: Its TGI is over 100 µM.

Q: And the TGI (IGROV1 ovarian)?
A: The TGI was over 100 µM.

Q: What about the TGI (ACHN renal) of the same molecule?
A: Its TGI is over 100 µM.

Q: What about the TGI (MOLT-4 leukemia) of the same molecule?
A: Its TGI is over 100 µM.

Q: What about the TGI (RXF 393 renal) of the same molecule?
A: The TGI was over 100 µM.

Q: What about the TGI (HOP-92 NSCLC) of the same molecule?
A: The TGI was over 100 µM.

Q: And the TGI (PC-3 prostate)?
A: The TGI was over 100 µM.

Q: And the TGI (MDA-MB-231 breast)?
A: The TGI was over 100 µM.

Q: And the TGI (MCF7 breast)?
A: Its TGI is over 100 µM.

Q: What about the TGI (CAKI-1 renal) of the same molecule?
A: The TGI was over 100 µM.

Q: What about the TGI (M14 melanoma) of the same molecule?
A: Its TGI is over 100 µM.

Q: And the TGI (OVCAR-3 ovarian)?
A: Its TGI is over 100 µM.

Q: What about the TGI (NCI-H23 lung) of the same molecule?
A: The TGI was over 100 µM.

Q: What about the TGI (RPMI-8226 leukemia) of the same molecule?
A: Its TGI is over 100 µM.

Q: What about the TGI (HL-60(TB) leukemia) of the same molecule?
A: The TGI was over 100 µM.

Q: And the TGI (HT29 colon)?
A: Its TGI is over 100 µM.

Q: What about the TGI (NCI-H226 lung) of the same molecule?
A: Its TGI is over 100 µM.

Q: What about the TGI (HS 578T breast) of the same molecule?
A: The TGI was over 100 µM.

Q: And the TGI (KM12 colon)?
A: The TGI was over 100 µM.

Q: And the TGI (786-0 renal)?
A: The TGI was over 100 µM.

Q: And the TGI (UACC-257 melanoma)?
A: The TGI was over 100 µM.

Q: And the TGI (SN12C renal)?
A: The TGI was over 100 µM.

Q: And the TGI (CCRF-CEM leukemia)?
A: The TGI was over 100 µM.

Q: And the TGI (SK-MEL-2 melanoma)?
A: The TGI was over 100 µM.

Q: What about the TGI (SK-MEL-5 melanoma) of the same molecule?
A: The TGI was over 100 µM.

Q: What about the TGI (U251 CNS) of the same molecule?
A: Its TGI is over 100 µM.

Q: And the TGI (EKVX NSCLC)?
A: The TGI was over 100 µM.

Q: And the TGI (A549 NSCLC)?
A: The TGI was over 100 µM.

Q: And the TGI (HCT-116 colon)?
A: Its TGI is over 100 µM.

Q: And the TGI (T-47D breast)?
A: Its TGI is over 100 µM.

Q: And the TGI (SF-268 CNS)?
A: Its TGI is over 100 µM.

Q: And the TGI (MDA-MB-435)?
A: The TGI was over 100 µM.

Q: What about the TGI (SW-620 colon) of the same molecule?
A: Its TGI is over 100 µM.

Q: And the TGI (OVCAR-5 ovarian)?
A: Its TGI is over 100 µM.

Q: What about the TGI (DU-145 prostate) of the same molecule?
A: The TGI was over 100 µM.

Q: And the TGI (UACC-62 melanoma)?
A: The TGI was over 100 µM.

Q: And the TGI (HCT-15 colon)?
A: The TGI was over 100 µM.

Q: And the TGI (NCI-H522 lung)?
A: Its TGI is over 100 µM.

Q: What about the TGI (BT-549 breast) of the same molecule?
A: Its TGI is over 100 µM.

Q: What about the TGI (SF-295 CNS) of the same molecule?
A: The TGI was over 100 µM.

Q: And the TGI (UO-31 renal)?
A: Its TGI is over 100 µM.

Q: Which TGI (COLO 205 colon) does the source give for `NCCNS(=O)(=O)c1ccc(N)cc1` here?
A: Its TGI is over 100 µM.

Q: What about the TGI (SK-OV-3 ovarian) of the same molecule?
A: Its TGI is over 100 µM.

Q: And the TGI (SNB-75 CNS)?
A: Its TGI is over 100 µM.

Q: And the TGI (SNB-19 CNS)?
A: The TGI was over 100 µM.

Q: And the TGI (NCI/ADR-RES ovarian)?
A: Its TGI is over 100 µM.

Q: And the TGI (TK-10 renal)?
A: The TGI was over 100 µM.

Q: What about the TGI (OVCAR-4 ovarian) of the same molecule?
A: Its TGI is over 100 µM.

Q: What about the TGI (SR leukemia) of the same molecule?
A: The TGI was over 100 µM.

Q: And the TGI (A498 renal)?
A: The TGI was over 100 µM.

Q: And the TGI (OVCAR-8 ovarian)?
A: The TGI was over 100 µM.

Q: And the TGI (LOX IMVI melanoma)?
A: Its TGI is over 100 µM.

Q: What about the TGI (MDA-N) of the same molecule?
A: Its TGI is over 100 µM.

Q: And the TGI (SF-539 CNS)?
A: The TGI was over 100 µM.

Q: And the TGI (IGROV1 ovarian)?
A: The TGI was over 100 µM.

Q: What about the TGI (ACHN renal) of the same molecule?
A: The TGI was over 100 µM.

Q: What about the TGI (MOLT-4 leukemia) of the same molecule?
A: The TGI was over 100 µM.

Q: What about the TGI (RXF 393 renal) of the same molecule?
A: Its TGI is over 100 µM.

Q: And the TGI (HOP-92 NSCLC)?
A: Its TGI is over 100 µM.

Q: What about the TGI (SK-MEL-28 melanoma) of the same molecule?
A: The TGI was over 100 µM.

Q: And the TGI (HOP-62 NSCLC)?
A: Its TGI is over 100 µM.

Q: What about the TGI (PC-3 prostate) of the same molecule?
A: The TGI was over 100 µM.

Q: What about the TGI (MDA-MB-231 breast) of the same molecule?
A: The TGI was over 100 µM.

Q: What about the TGI (MCF7 breast) of the same molecule?
A: Its TGI is over 100 µM.

Q: And the TGI (CAKI-1 renal)?
A: Its TGI is over 100 µM.

Q: What about the TGI (M14 melanoma) of the same molecule?
A: Its TGI is over 100 µM.

Q: And the TGI (OVCAR-3 ovarian)?
A: The TGI was over 100 µM.

Q: What about the TGI (NCI-H23 lung) of the same molecule?
A: The TGI was over 100 µM.

Q: What about the TGI (RPMI-8226 leukemia) of the same molecule?
A: The TGI was over 100 µM.

Q: And the TGI (HL-60(TB) leukemia)?
A: Its TGI is 41.5 µM.

Q: What about the TGI (HT29 colon) of the same molecule?
A: The TGI was over 100 µM.

Q: What about the TGI (NCI-H226 lung) of the same molecule?
A: Its TGI is over 100 µM.

Q: And the TGI (HS 578T breast)?
A: The TGI was over 100 µM.

Q: And the TGI (KM12 colon)?
A: The TGI was over 100 µM.

Q: And the TGI (786-0 renal)?
A: Its TGI is over 100 µM.

Q: What about the TGI (UACC-257 melanoma) of the same molecule?
A: The TGI was over 100 µM.

Q: And the TGI (SN12C renal)?
A: Its TGI is over 100 µM.

Q: And the TGI (MALME-3M melanoma)?
A: The TGI was over 100 µM.

Q: What about the TGI (CCRF-CEM leukemia) of the same molecule?
A: The TGI was over 100 µM.

Q: What about the TGI (SK-MEL-2 melanoma) of the same molecule?
A: Its TGI is over 100 µM.

Q: What about the TGI (SK-MEL-5 melanoma) of the same molecule?
A: The TGI was over 100 µM.

Q: What about the TGI (U251 CNS) of the same molecule?
A: Its TGI is over 100 µM.

Q: And the TGI (EKVX NSCLC)?
A: Its TGI is over 100 µM.

Q: What about the TGI (A549 NSCLC) of the same molecule?
A: Its TGI is over 100 µM.

Q: And the TGI (HCT-116 colon)?
A: Its TGI is over 100 µM.

Q: What about the TGI (T-47D breast) of the same molecule?
A: Its TGI is over 100 µM.

Q: And the TGI (SF-268 CNS)?
A: The TGI was over 100 µM.

Q: What about the TGI (MDA-MB-435) of the same molecule?
A: The TGI was over 100 µM.

Q: What about the TGI (SW-620 colon) of the same molecule?
A: Its TGI is over 100 µM.

Q: What about the TGI (OVCAR-5 ovarian) of the same molecule?
A: Its TGI is over 100 µM.

Q: What about the TGI (DU-145 prostate) of the same molecule?
A: The TGI was over 100 µM.

Q: And the TGI (UACC-62 melanoma)?
A: The TGI was over 100 µM.

Q: And the TGI (K-562 leukemia)?
A: Its TGI is over 100 µM.

Q: What about the TGI (HCT-15 colon) of the same molecule?
A: Its TGI is over 100 µM.

Q: And the TGI (NCI-H522 lung)?
A: The TGI was over 100 µM.

Q: And the TGI (BT-549 breast)?
A: The TGI was over 100 µM.

Q: And the TGI (SF-295 CNS)?
A: Its TGI is over 100 µM.

Q: And the TGI (UO-31 renal)?
A: The TGI was over 100 µM.
